# Laboratory results published in ChEMBL document CHEMBL4689842, “EUbOPEN Chemogenomics Library wave 1” (2021).
# What was measured:
# HEK-293T = experiment: Incucyte cell viability with HEK293T; format: toxicity, cell-based; conditions: human, 10 µM, compound concentration 10 uM
# U2OS = experiment: Incucyte cell viability with U2OS; format: toxicity, cell-based; conditions: human, 10 µM, compound concentration 10 uM
# [1] = 0 h, replicate number 2, timepoint 0 hours
# [2] = 6 h, replicate number 1, timepoint 6 hours
# [3] = 12 h, replicate number 1, timepoint 12 hours
# [4] = 18 h, replicate number 1, timepoint 18 hours
# [5] = 24 h, replicate number 1, timepoint 24 hours
# [6] = 18 h, replicate number 2, timepoint 18 hours
# [7] = 24 h, replicate number 2, timepoint 24 hours
# [8] = 6 h, replicate number 2, timepoint 6 hours
# [9] = 0 h, replicate number 1, timepoint 0 hours
# [10] = 12 h, replicate number 2, timepoint 12 hours
# Note: filed as whole numbers so only -1 and 0 and 1 occur.
SMILES,Growth Rate (HEK-293T; [1]),Growth Rate (HEK-293T; [2]),Growth Rate (HEK-293T; [3]),Growth Rate (HEK-293T; [4]),Growth Rate (HEK-293T; [5]),Growth Rate (U2OS; [1]),Growth Rate (U2OS; [3]),Growth Rate (U2OS; [4]),Growth Rate (U2OS; [6]),Growth Rate (U2OS; [5]),Growth Rate (U2OS; [7]),Growth Rate (U2OS; [2]),Growth Rate (U2OS; [8]),Growth Rate (U2OS; [9]),Growth Rate (HEK-293T; [9]),Growth Rate (U2OS; [10]),Growth Rate (HEK-293T; [10]),Growth Rate (HEK-293T; [6]),Growth Rate (HEK-293T; [7]),Growth Rate (HEK-293T; [8])
CN1CCN(C(=O)C(C)(C)c2ccc(C(=O)Nc3cn4cc(-c5cc(C(C)(C)C)cc(C(C)(C)C)c5)ccc4n3)cc2)CC1 [T3-CLK-N],1,0,0,0,0,0,1,0,1,0,1,–,–,–,–,–,–,–,–,–
S=C(NCCCc1c[nH]cn1)NCCCN(Cc1ccc(Cl)c(Cl)c1)c1ccc(Br)cn1,0,0,0,0,0,–,0,0,–,0,–,-1,0,–,–,–,–,–,–,–
CCn1cc(-c2ccnc3[nH]c(-c4cccc(CN(C)C)c4)cc23)c(-c2ccc(NC(=O)N(C)C)cc2)n1 [GSK-1070916],1,0,0,0,0,–,0,0,–,0,–,0,–,1,–,–,–,–,–,–
CCN1CCN(Cc2ccc(Nc3ncc(F)c(-c4cc(F)c5nc(C)n(C(C)C)c5c4)n3)nc2)CC1.CS(=O)(=O)O,–,0,0,0,0,1,1,0,1,0,–,–,–,–,0,–,–,–,–,–
O=C(Nc1cccnn1)N1CCC(=Cc2cccc(Oc3ccc(C(F)(F)F)cn3)c2)CC1,1,0,0,0,0,–,0,0,–,0,–,0,–,0,–,1,–,–,–,–
CN([C@@H](Cc1ccc(OS(=O)(=O)c2cccc3cnccc23)cc1)C(=O)N1CCN(c2ccccc2)CC1)S(=O)(=O)c1cccc2cnccc12,1,0,0,0,0,0,1,1,–,1,–,1,–,–,–,–,–,–,–,–
CCCS(=O)(=O)Nc1ccc(F)c(C(=O)c2c[nH]c3ncc(Cl)cc23)c1F [PLX-4720],1,0,0,0,0,–,0,0,–,0,–,1,–,0,0,1,–,–,–,–
CCn1c(=O)c(-c2ccc(-c3cncs3)cc2Cl)cc2cnc(Nc3ccc(N4CCN(C)CC4)cc3)nc21,–,0,–,–,1,1,0,0,–,0,–,–,–,–,0,1,0,1,0,–
COc1cc(N2CCN(C)CC2)ccc1Nc1ncc2c(n1)N(C)c1ccccc1C(=O)N2C,–,–,–,1,0,1,1,0,–,0,–,1,0,0,1,–,0,0,–,1
Cc1ccc(C(=O)Nc2cccc(C(F)(F)F)c2)cc1Nc1nc(-c2cccnc2)nc2c1cnn2C,–,0,0,0,0,–,0,0,–,0,–,0,–,–,0,–,–,–,–,–
NC(=O)c1cccc(-c2cc(Nc3ccc(OC(F)(F)F)cc3)ncn2)c1,–,0,0,0,0,1,0,1,0,1,0,1,–,–,0,–,–,–,–,–
O=C(Nc1ccc(-n2nc(-c3cccnc3)cc2C(F)(F)F)cn1)c1ccc(-c2ccccc2)c(F)c1 [BI 2049],–,0,0,0,0,–,0,0,–,0,–,0,1,–,1,–,–,–,–,–
CNC(=O)c1ccc(Nc2nc(OC3CCCC3)c3c(-c4ccc5nc(C)oc5c4)c[nH]c3n2)c(OC)c1,1,0,0,0,0,–,1,0,–,0,–,–,–,–,–,–,–,–,–,–
COc1ccc(S(=O)(=O)N(CCO)c2ccccc2CN(C)C/C=C/c2ccc(Cl)cc2)cc1.O=P(O)(O)O,–,0,0,0,0,1,0,0,–,0,–,0,1,0,–,1,–,–,–,–
CCNc1cc(N[C@H]2CC[C@H](O)CC2)nc(Nc2ccc3c(ccn3Cc3ccccc3)c2)n1,–,0,0,0,0,–,0,0,–,0,–,0,–,0,–,–,–,–,–,–
CCOC(=O)c1c(C)[nH]c2ccc3c(c12)CN1CCc2cc(OC)ccc2C1O3 (stereo not drawn),0,0,0,0,0,–,0,0,–,0,–,–,1,1,–,–,–,–,–,–
Cc1ccc2nc(NCCN)c3ncc(C)n3c2c1.O=C(O)C(F)(F)F.O=C(O)C(F)(F)F,1,0,0,0,0,–,0,0,–,0,–,0,–,0,0,–,–,–,–,–
O=C(Nc1ccc(Cl)cc1)Nc1cccc(-c2cccc(N3CCCC3)n2)c1,0,0,0,0,0,–,0,0,–,0,–,–,–,0,1,–,–,–,–,–
COc1cccc2cc(-c3nc([C@H]4CC[C@H](C(=O)O)CC4)n4ncnc(N)c34)[nH]c12 [OSI-027],–,0,0,0,0,–,1,0,1,0,–,1,–,1,1,–,–,–,–,–
CCOc1cc(C(=O)N2CCC(N3CCN(C)CC3)CC2)ccc1Nc1ncc2c(n1)N(C1CCCC1)c1ccccc1C(=O)N2C,0,0,0,0,0,0,0,0,–,0,–,1,–,–,–,1,–,–,–,–
CCCn1c(=O)c2[nH]c(-c3cnn(Cc4cccc(C(F)(F)F)c4)c3)nc2n(CC)c1=O [GS 6201],0,0,0,0,0,–,–,1,0,1,0,–,–,0,1,1,1,–,–,1
CCCS(=O)(=O)c1nc(NC2CC2)cc(-c2ccc3c(ccn3C3CC(C)(C)NC(C)(C)C3)c2)n1,0,0,0,0,0,0,0,0,–,0,–,0,–,–,–,–,–,–,–,–
Cc1cc(C)c(S(=O)(=O)N(Cc2ccc(-c3cccc(S(C)(=O)=O)c3)cc2)Cc2ccc(C(F)(F)F)o2)c(C)c1,–,0,0,0,0,1,1,1,–,1,–,–,1,0,0,–,–,–,–,1
CCOc1cc2ncc(C#N)c(Nc3ccc(OCc4ccccn4)c(Cl)c3)c2cc1NC(=O)/C=C/CN(C)C [NERATINIB],–,0,0,0,0,0,0,0,–,0,–,0,1,–,0,–,–,–,–,–
